Like-named read-outs stand apart in the source and are kept apart here.
How the values were obtained:
hERG = hERG (Homo sapiens (Human), UniProt Q12809); test: hERG assay (radioligand membrane binding)
Experimental: Procedure: Compounds were prepared and diluted with DMSO to make 0.2 mM and 0.02 mM. Reference compound was diluted with DMSO to make 8-point 4-fold serial dilution, starting at 0.2 mM. One μl of compounds/high control/low control was transferred to the assay plate according to the plate map. Next, and by following the plate map, 100 μl of membrane stocks was dispensed into the plate followed by adding 100 μl of radio ligand. Plates were then sealed and were incubated at RT for 1 hrs. In the meantime, soak the Unifilter-96 GF/C filter plates with 50 μl of 0.5% BSA per well for at least 0.5 hour at room temperature. When binding assays are completed, filter the reaction mixture through GF/C plates using Perkin Elmer Filtermate Harvester, and then wash each plate for 4 times with cold wash buffer. Next, Dry the filter plates for 1 hour at 50 degrees and seal the bottom of the filter plate wells using Perkin Elmer Unifilter-96 backing seal tape. Next, add 50 μl of Perkin Elmer Microscint 20 cocktail. Seal the top of the filter plate with Perkin Elmer TopSeal-A sealing film. Using Perkin Elmer MicroBeta2 Reader count ^3H trapped on filter. Finally, analyze the data with GraphPad Prism 5. Calculate the “Inhibition [% Control]” using the equation: % Inh=(1−Background subtracted Assay value/Background subtracted HC value)*100.
The compound of the disclosure were tested in several hERG assays.

[1] = molecular target: MLL1-WDR5 protein-protein interaction (Homo sapiens (Human), UniProt P61964); test: WDR5 TR-FRET assay of inhibition against MLL1-WDR5 protein-protein interaction; type: binding
Experimental: WDR5 TR-FRET Assay Procedure: Stock compounds were transferred to the assay plate by Echo Liquid Handler. Reactions were performed in the assay buffer (1×PBS, 300 mM NaCl, 0.5 mM TCEP, 0.1% CHAPS) containing 5 nM WDR5 protein, 10 nM peptide (Ac-ARTEVHLRKS-[Ahx-Ahx] [C]-Alexa Fluor 488-NH2) and 0.25 nM Tb-anti His antibody (Tb-Ab) in 384-well white plate (PerkinElmer) with a final volume of 20 μl. Compounds were incubated with WDR5 protein for 30 min at room temperature. Plates were covered, protected from light and incubated for 60 min at room temperature after adding the peptide and Tb-Ab. EnVision Multimode Plate Reader (PerkinElmer) was used for the TR-FRET assay with excitation wavelength at 340 nm and emission wavelength at 495 and 520 nm. The ratio of the 520/495 wavelengths were used to assess the degree of the FRET signal. IC50 was calculated by fitting the inhibition data using XLfit software to sigmoidal dose-response model.
Biphenyl compound DDO-2084 was reported to be a small molecule inhibitor that can inhibit MLL1-WDR5 protein-protein interaction, reduce MLL1 enzyme catalytic activity, and downregulate the expression of Hox and Meis-1 genes (Eur. J. Med. Chem. 2016, 124, 480-489). DDO-2084 is used as a positive control compound.

MV-411 cells = test: Anti-proliferative activity against leukemia cells (CellTiterGlo viability, 72 hrs); type: cell-based; conditions: MV4-11, MV-411 human acute monocytic leukemia cell
Experimental: Procedure: MV-411 or Molm-13 cells were seeded into 384 well plates at 2000 cells/well density in 50 uL according plate map and were allowed to naturally sediment by waiting about 30 min in Clean Bench. Next, plated cells were centrifuged for 1 min at 1000 rpm and the excess cells were transferred into the flasks for further culture. Cells in the assay plates were incubated (at least 4 hrs) at 37° C., 5% CO2 for next process followed by adding the compounds as the plate map indicated. The tests were performed in duplicates with treatment of compounds at 10 pts 3 fold titration in 384 well plates. Taxol was as positive control while DMSO as negative control. To rule out edge effect, the wells on the edge were not seeded and therefore one 384 well plate holds 13 compounds. Cells viability was measured 72 hrs after incubation with compounds and using CellTiterGlo (promega) viability assay according to manufactory's instruction to check the ATP production in each well.
Experiments on anti-proliferative activity against leukemia cells were conducted with some of the compounds of the invention.

[2] = WDR5 TR-FRET, 5 nM WDR5 protein, 10 nM peptide, read-out: MLL1-WDR5 PPI inhibitory activity
[3] = Table 7, read-out: WDR5 TR-FRET Assay (IC50 nM)

Sequence of hERG (Q12809 whole entry): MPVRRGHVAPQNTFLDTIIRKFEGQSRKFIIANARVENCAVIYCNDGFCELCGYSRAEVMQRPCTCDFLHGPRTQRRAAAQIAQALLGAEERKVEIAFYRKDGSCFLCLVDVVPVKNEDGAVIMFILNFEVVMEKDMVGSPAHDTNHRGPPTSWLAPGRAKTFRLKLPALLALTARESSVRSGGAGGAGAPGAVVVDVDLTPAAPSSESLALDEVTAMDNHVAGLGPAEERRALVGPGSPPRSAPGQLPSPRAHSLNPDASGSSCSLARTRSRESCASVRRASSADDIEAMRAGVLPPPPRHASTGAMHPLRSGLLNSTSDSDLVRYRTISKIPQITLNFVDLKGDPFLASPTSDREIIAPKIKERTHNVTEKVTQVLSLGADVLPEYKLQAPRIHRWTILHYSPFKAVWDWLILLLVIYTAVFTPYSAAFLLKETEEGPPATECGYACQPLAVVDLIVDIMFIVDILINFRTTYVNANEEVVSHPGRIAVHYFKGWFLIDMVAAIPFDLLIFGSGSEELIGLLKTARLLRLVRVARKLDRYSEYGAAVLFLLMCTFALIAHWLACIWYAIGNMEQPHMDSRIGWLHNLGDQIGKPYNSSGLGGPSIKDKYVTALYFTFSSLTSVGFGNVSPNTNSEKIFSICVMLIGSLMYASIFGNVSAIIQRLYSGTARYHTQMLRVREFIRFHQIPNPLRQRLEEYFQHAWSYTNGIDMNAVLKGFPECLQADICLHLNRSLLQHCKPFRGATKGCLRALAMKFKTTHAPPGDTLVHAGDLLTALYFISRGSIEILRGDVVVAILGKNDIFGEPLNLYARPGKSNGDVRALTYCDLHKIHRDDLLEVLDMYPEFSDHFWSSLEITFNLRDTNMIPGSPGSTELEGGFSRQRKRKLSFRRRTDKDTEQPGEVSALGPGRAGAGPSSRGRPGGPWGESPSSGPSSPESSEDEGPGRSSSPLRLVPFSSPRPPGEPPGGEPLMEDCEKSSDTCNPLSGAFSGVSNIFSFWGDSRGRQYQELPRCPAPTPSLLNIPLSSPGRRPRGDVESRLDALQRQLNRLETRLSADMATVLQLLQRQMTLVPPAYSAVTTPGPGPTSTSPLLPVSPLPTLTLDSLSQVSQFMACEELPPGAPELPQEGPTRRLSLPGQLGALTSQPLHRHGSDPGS

CCN(CC)C(=O)c1cn(-c2cc(NC(=O)c3cc(N)c(F)c(C)c3Cl)c(N3C[C@@H](C)N(C)[C@@H](C)C3)cc2F)nn1 [Compound 29, 1-(5-(5-amino-2-chloro-4-fluoro-3-methylbenzamido)-2-fluoro-4-((3S,5R)-3,4,5-trimethylpiperazin-1-yl)phenyl)-N,N-diethyl-1H-1,2,3-triazole-4-carboxamide]
IC50 (hERG): 3.6 µM
Ki (hERG): 2.04 µM

CN1CCN(c2ccc(-n3cc(C(=O)NCCCN4CCOCC4)nn3)cc2NC(=O)c2ccc(F)c(C(F)(F)F)c2)CC1 [Example 21, 1-(3-(4-fluoro-3-(trifluoromethyl)benzamido)-4-(4-methylpiperazin-1-yl)phenyl)-N-(3-morpholinopropyl)-1H-1,2,3-triazole-4-carboxamide]
IC50 (hERG): > 10 µM

CN1CCN(c2ccc(-n3cc(C(=O)NCCCN4CCOCC4)nn3)cc2NC(=O)c2ccc(F)c([N+](=O)[O-])c2)CC1 [Example 19, 1-(3-(4-fluoro-3-nitrobenzamido)-4-(4-methylpiperazin-1-yl)phenyl)-N-(3-morpholinopropyl)-1H-1,2,3-triazole-4-carboxamide]
IC50 (hERG): > 10 µM

Cc1c(F)c([N+](=O)[O-])cc(C(=O)Nc2cc(-n3cc(C(=O)NCCCN4CCOCC4)nn3)ccc2N2CCN(C)CC2)c1Cl [Example 18, 1-[3-[(2-chloro-4-fluoro-3-methyl-5-nitro-benzoyl)amino]-4-(4-methylpiperazin-1-yl)phenyl]-N-(3-morpholinopropyl)triazole-4-carboxamide]
IC50 (hERG): > 10 µM

Cc1c(F)c(N)cc(C(=O)Nc2cc(-n3cc(C(=O)NCCCN4CCOCC4)nn3)ccc2N2CCN(C)[C@@H](C)C2)c1Cl [HYBI_020]
IC50 [1, 2]: 8.23 nM
GI50 (MV-411 cells; Table 6): 8.36 µM

CC(C)N1CCN(c2ncc(-c3cc(Nc4ncnc(Cl)c4N)c(N4C[C@@H](C)N(C)[C@@H](C)C4)cc3F)cn2)CC1 [DDO-2213_027, 6-chloro-N4-(4-fluoro-5-(2-(4-isopropylpiperazin-1-yl)pyrimidin-5-yl)-2-((3S,5R)-3,4,5-trimethylpiperazin-1-yl)phenyl)pyrimidine-4,5-diamine]
IC50 [1, 3]: 31.3 nM
GI50 (MV-411 cells; Table 7): 6.56 µM

C[C@H]1CN(c2cc(F)c(-c3ccc(C(=O)N(C)C)cc3)cc2Nc2ncnc(Cl)c2N)CCN1C [DDO-2213_001, (S)-5′-((5-amino-6-chloropyrimidin-4-yl)amino)-4′-(3,4-dimethylpiperazin-1-yl)-2′-fluoro-N,N-dimethyl-[1,1′-biphenyl]-4-carboxamide]
IC50 [1, 3]: 11.1 nM
GI50 (MV-411 cells; Table 7): 11.6 µM

CN1CCN(c2ccc(-n3cc(C(=O)NCCCN4CCOCC4)nn3)cc2NC(=O)c2ccc(F)c(C(F)(F)F)c2)CC1 [HYBI_042]
IC50 [1, 2]: 802 nM
GI50 (MV-411 cells; Table 6): 4.75 µM
